The values below come from ChEMBL document CHEMBL5727988, “Prodrugs of pyridone amides useful as modulators of sodium channels” (2020).

The nature of the assay: Electrophysiology Assay: Patch clamp electrophysiology was used to assess the efficacy and selectivity of sodium channel blockers in dorsal root ganglion neurons. Rat neurons were isolated from the dorsal root ganglions and maintained in culture for 2 to 10 days in the presence of NGF (50 ng/ml) (culture media consisted of NeurobasalA supplemented with B27, glutamine and antibiotics). Small diameter neurons (nociceptors, 8-12 μm in diameter) were visually identified and probed with fine tip glass electrodes connected to an amplifier (Axon Instruments). The “voltage clamp” mode was used to assess the compound's IC50 holding the cells at −60 mV. In addition, the “current clamp” mode was employed to test the efficacy of the compounds in blocking action potential generation in response to current injections.

Take `Cc1cc(F)ccc1Oc1cc(C(F)(F)F)ccc1C(=O)Nc1ccn(CCl)c(=O)c1`: the IC50 came to 28 nM.
Turning to `COc1cc(NC(=O)c2ccc(C(F)(F)F)cc2F)ccn1`, the IC50 is 44 nM.
